Assay results from ChEMBL document CHEMBL1201862, “PubChem BioAssay data set” (2004).
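Five concentrations, 48 hours, 96-well plates. Here, GI50 denotes the concentration required for 50% inhibition of growth.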 The source made the active and inactive calls. Cut-off read from the data, not from the text of the source: active = GI50 up to about 1.1 µM and inactive = higher.

Columns and labels:
Experiment in all cases: DTP human tumour cell line panel, 48 h
PC-3 = system: PC-3
UO-31 = system: UO-31
COLO 205 = system: COLO 205
OVCAR-8 = system: OVCAR-8
MDA-MB-435 = system: MDA-MB-435
SF-295 = system: SF-295
SK-MEL-2 = system: SK-MEL-2
UACC-257 = system: UACC-257
UACC-62 = system: UACC-62
CAKI-1 = system: CAKI-1
SNB-19 = system: SNB-19
MOLT-4 = system: MOLT-4
T47D = system: T47D
M14 = system: M14
U-251 = system: U-251
DU-145 = system: DU-145
EKVX = system: EKVX
SW-620 = system: SW-620
HCT-15 = system: HCT-15
IGROV-1 = system: IGROV-1

For `CO[C@]12CC(=O)C3(C(C[C@H]4CC5CC=C6C[C@@H](OC(C)=O)CC[C@]6(OC(C)=O)C5C[C@@]43C)C1)C1C[C@H]3[C@@H]4CC=C5C[C@@H](OC(C)=O)CC[C@]5(OC(C)=O)[C@H]4CC[C@]3(C)C12` (stereo not given in full), the GI50 (PC-3) was 10.7 µM (inactive), the GI50 (UO-31) was 16.1 µM (inactive) and the GI50 (COLO 205) was 3.1 µM (inactive). The GI50 (OVCAR-8) was 24.1 µM (inactive), the GI50 (MDA-MB-435) was 18.8 µM (inactive) and the GI50 (SF-295) was 13.9 µM (inactive). The GI50 (SK-MEL-2) was 18.1 µM (inactive), the GI50 (UACC-257) was 23.6 µM (inactive) and the GI50 (UACC-62) was 20.4 µM (inactive). The GI50 (CAKI-1) was 19.2 µM (inactive), the GI50 (SNB-19) was 13.9 µM (inactive) and the GI50 (MOLT-4) was 5.58 µM (inactive). The GI50 (T47D) was 10.9 µM (inactive), the GI50 (M14) was 17.5 µM (inactive) and the GI50 (U-251) was 17.5 µM (inactive). The GI50 (DU-145) was 16.5 µM (inactive), the GI50 (EKVX) was 21.4 µM (inactive) and the GI50 (SW-620) was 41 µM (inactive). For the same compound, the GI50 (HCT-15) was 21.6 µM and the GI50 (IGROV-1) was 20.1 µM (inactive).

For `O=C(CCO)OCCCCCC/C=C\CCCCCC/C=C\CCCCCCCCOC(=O)CCO`, the GI50 (PC-3) was 17.1 µM (inactive), the GI50 (UO-31) was 18.6 µM (inactive) and the GI50 (COLO 205) was > 100 µM (inactive). The GI50 (OVCAR-8) was 18.5 µM (inactive), the GI50 (MDA-MB-435) was 21.2 µM (inactive) and the GI50 (SF-295) was 18.3 µM (inactive). For the same compound, the GI50 (SK-MEL-2) was 17.3 µM (inactive), the GI50 (UACC-257) was 17.2 µM (inactive) and the GI50 (UACC-62) was 16.3 µM (inactive). The GI50 (CAKI-1) was 21.7 µM (inactive), the GI50 (SNB-19) was 18.9 µM (inactive) and the GI50 (MOLT-4) was 14.6 µM (inactive). For the same compound, the GI50 (T47D) was 17.1 µM (inactive), the GI50 (M14) was 17.1 µM (inactive) and the GI50 (U-251) was 16.7 µM (inactive). The GI50 (DU-145) was 16.4 µM (inactive), the GI50 (EKVX) was 18.3 µM (inactive) and the GI50 (SW-620) was 26.6 µM (inactive). The GI50 (HCT-15) was 15.6 µM and the GI50 (IGROV-1) was 17.2 µM (inactive).

With `Cc1c(/N=C/C=C/c2ccccc2)c(=O)n(-c2ccccc2)n1C` the GI50 (PC-3) was 33 µM (inactive), the GI50 (UO-31) was 36.5 µM (inactive) and the GI50 (COLO 205) was > 100 µM (inactive). For the same compound, the GI50 (OVCAR-8) was 17.4 µM (inactive), the GI50 (MDA-MB-435) was 34.4 µM (inactive) and the GI50 (SF-295) was 14.4 µM (inactive). For the same compound, the GI50 (SK-MEL-2) was 88.7 µM (inactive), the GI50 (UACC-257) was 45.3 µM (inactive) and the GI50 (UACC-62) was 17.2 µM (inactive). For the same compound, the GI50 (CAKI-1) was 34.7 µM (inactive), the GI50 (SNB-19) was 30.1 µM (inactive) and the GI50 (MOLT-4) was 12.9 µM (inactive). For the same compound, the GI50 (T47D) was 23 µM (inactive), the GI50 (M14) was 16.3 µM (inactive) and the GI50 (U-251) was 15.6 µM (inactive). For the same compound, the GI50 (DU-145) was 33.9 µM (inactive), the GI50 (EKVX) was 27.2 µM (inactive) and the GI50 (SW-620) was 23 µM (inactive). The GI50 (HCT-15) was 47 µM and the GI50 (IGROV-1) was 33.7 µM (inactive).

`Cc1cc(Cl)cc2c1NC(=O)C2(O)CC(=O)c1ccco1` (stereo not given) was tested, and the GI50 (PC-3) was > 100 µM (inactive), the GI50 (UO-31) was > 100 µM (inactive) and the GI50 (COLO 205) was > 100 µM (inactive). The GI50 (OVCAR-8) was > 78.3 µM (inactive), the GI50 (MDA-MB-435) was 2.92 µM (inactive) and the GI50 (SF-295) was > 73.3 µM (inactive). For the same compound, the GI50 (SK-MEL-2) was > 85.9 µM (inactive), the GI50 (UACC-257) was 45.9 µM (inactive) and the GI50 (UACC-62) was 31 µM (inactive). The GI50 (CAKI-1) was > 100 µM (inactive), the GI50 (SNB-19) was > 100 µM (inactive) and the GI50 (MOLT-4) was 0.92 µM (active). The GI50 (T47D) was > 100 µM (inactive), the GI50 (M14) was > 66.2 µM (inactive) and the GI50 (U-251) was > 90.6 µM (inactive). For the same compound, the GI50 (DU-145) was > 100 µM (inactive), the GI50 (EKVX) was > 100 µM (inactive) and the GI50 (SW-620) was > 78.2 µM (inactive). The GI50 (HCT-15) was > 100 µM and the GI50 (IGROV-1) was 99.3 µM (inactive).
